Data from ChEMBL document CHEMBL1909046, “DrugMatrix in vitro pharmacology data”.

What was measured:
[1] = DRUGMATRIX: Interleukin IL-1 radioligand binding (ligand: [125I] interleukin 1beta); assay type: cell membranes, Membrane; settings: nih3t3; Not Active = under 50% inhibition at 10 µM
[2] = DRUGMATRIX: Calcium Channel Type L, Dihydropyridine radioligand binding (ligand: [3H] Nitrendipine); assay type: cell membranes, Rattus norvegicus, Wistar, Cerebral cortex, Membrane; settings: Not Active = under 50% inhibition at 10 µM
[3] = molecular target: T1, C-X-C chemokine receptor type 2 (Homo sapiens, UniProt P25025); assay type: cell membranes, CHO-K1, Membrane; settings: cho-k1; note: in other assays of this panel Not Active means under 50% inhibition at 10 µM
T1 sequence (P25025 whole entry): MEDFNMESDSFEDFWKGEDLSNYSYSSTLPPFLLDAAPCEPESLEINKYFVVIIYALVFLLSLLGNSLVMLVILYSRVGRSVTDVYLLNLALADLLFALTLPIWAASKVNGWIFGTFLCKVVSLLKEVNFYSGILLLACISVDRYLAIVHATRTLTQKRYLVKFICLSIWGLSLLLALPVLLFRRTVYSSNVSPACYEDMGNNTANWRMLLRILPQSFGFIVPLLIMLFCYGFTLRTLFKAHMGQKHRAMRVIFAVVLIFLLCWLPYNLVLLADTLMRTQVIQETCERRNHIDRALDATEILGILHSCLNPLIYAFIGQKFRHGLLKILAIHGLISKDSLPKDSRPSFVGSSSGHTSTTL

[4] = molecular target: cGMP-specific 3',5'-cyclic phosphodiesterase (Homo sapiens, UniProt O76074); experiment: DRUGMATRIX: Phosphodiesterase PDE5 enzyme inhibition (substrate: [3H]cGMP + cGMP); assay type: tissue-based, Platelet; settings: platelet; Not Active = under 50% inhibition at 10 µM
[5] = molecular target: C-C chemokine receptor type 5 (Homo sapiens, UniProt P51681); assay type: cell membranes, HEK293, Membrane; settings: hek293; note: in other assays of this panel Not Active means under 50% inhibition at 10 µM
C-C chemokine receptor type 5, sequence (P51681 whole entry): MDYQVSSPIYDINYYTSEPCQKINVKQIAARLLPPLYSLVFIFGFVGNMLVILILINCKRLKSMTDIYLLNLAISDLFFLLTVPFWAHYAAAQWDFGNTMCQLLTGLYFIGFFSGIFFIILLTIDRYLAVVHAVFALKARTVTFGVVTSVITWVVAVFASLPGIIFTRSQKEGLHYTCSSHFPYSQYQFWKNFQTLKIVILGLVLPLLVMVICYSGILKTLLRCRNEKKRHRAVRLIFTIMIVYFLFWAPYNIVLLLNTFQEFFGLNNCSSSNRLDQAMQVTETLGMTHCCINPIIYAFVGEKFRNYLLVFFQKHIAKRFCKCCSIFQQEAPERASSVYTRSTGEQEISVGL

| SMILES | IC50 [1] | Ki [1] | IC50 [2] | Ki [2] | IC50 [3] | IC50 [4] | IC50 [5] | IC50 ([2]; read-out: IC50) | Ki ([2]; read-out: Ki) |
| --- | --- | --- | --- | --- | --- | --- | --- | --- | --- |
| O=[As][O-].[Na+] [SODIUM ARSENITE] | Not Active | Not Active | Not Active | Not Active | Not Active | Not Active | Not Active | – | – |
| Cc1ccc(Cl)c(Nc2ccccc2C(=O)O)c1Cl [MECLOFENAMIC ACID] | Not Active | Not Active | Not Active | Not Active | Not Active | Not Active | Not Active | – | – |
| Cc1ccc(S(=O)(=O)NC(=O)NN2CCCCCC2)cc1 [TOLAZAMIDE] | Not Active | Not Active | Not Active | Not Active | Not Active | Not Active | Not Active | – | – |
| O=C(O)c1cc(/N=N/c2ccc(S(=O)(=O)Nc3ccccn3)cc2)ccc1O [SULFASALAZINE] | Not Active | Not Active | Not Active | Not Active | Not Active | Not Active | Not Active | – | – |
| CC(=O)O[C@]1(C(C)=O)CC[C@H]2[C@@H]3C[C@H](C)C4=CC(=O)CC[C@]4(C)[C@H]3CC[C@@]21C [MEDROXYPROGESTERONE ACETATE] | Not Active | Not Active | Not Active | Not Active | Not Active | Not Active | Not Active | – | – |
| CC[C@H](C)C(=O)O[C@H]1CCC=C2C=C[C@H](C)[C@H](CC[C@@H]3C[C@@H](O)CC(=O)O3)[C@H]21 [MEVASTATIN] | Not Active | Not Active | Not Active | Not Active | Not Active | Not Active | Not Active | – | – |
| CCN(CC)CCNC(=O)c1cc(Cl)c(N)cc1OC [METOCLOPRAMIDE] | Not Active | Not Active | Not Active | Not Active | Not Active | Not Active | Not Active | – | – |
| Cc1nnc(NS(=O)(=O)c2ccc(N)cc2)s1 [SULFAMETHIZOLE] | Not Active | Not Active | Not Active | Not Active | Not Active | Not Active | Not Active | – | – |
| CCC(C)(C)C(=O)O[C@H]1C[C@@H](C)C=C2C=C[C@H](C)[C@H](CC[C@@H]3C[C@@H](O)CC(=O)O3)[C@H]21 [SIMVASTATIN] | Not Active | Not Active | Not Active | Not Active | Not Active | Not Active | Not Active | – | – |
| CN1C(=O)OC(C)(C)C1=O [TRIMETHADIONE] | Not Active | Not Active | Not Active | Not Active | Not Active | Not Active | Not Active | – | – |
| CC[C@H](C)[C@@H](CO[C@@H](Cc1ccccc1)C(=O)N[C@@H](CCS(C)(=O)=O)C(=O)OC(C)C)NC[C@@H](N)CS | Not Active | Not Active | – | – | Not Active | Not Active | Not Active | 4.5 µM | 2.89 µM |
| OC[C@@H](O)[C@@H](O)[C@H](O)[C@H](O)CO [MANNITOL] | Not Active | Not Active | Not Active | Not Active | Not Active | Not Active | Not Active | – | – |
| Cc1cn([C@H]2C=C[C@@H](CO)O2)c(=O)[nH]c1=O [STAVUDINE] | Not Active | Not Active | Not Active | Not Active | Not Active | Not Active | Not Active | – | – |
| C[N+]1(C)[C@@H]2C[C@@H](OC(=O)[C@H](CO)c3ccccc3)C[C@H]1[C@@H]1O[C@@H]12.[Br-] [METHSCOPOLAMINE BROMIDE] | Not Active | Not Active | Not Active | Not Active | Not Active | Not Active | Not Active | – | – |
| CC1=C(/C=C/C(C)=C/C=C/C(C)=C/C(=O)O)C(C)(C)CCC1 [TRETINOIN] | Not Active | Not Active | Not Active | Not Active | Not Active | Not Active | Not Active | – | – |
